Measurements reported in patent EP4134671A1, “METHYLENE QUINUCLIDINONE COMPANION DIAGNOSTICS” (Deutsches Krebsforschungszentrum Stiftung des öffentlichen …, priority 2021, dated 2023).

Experiments:
[1] = test system: vincristine resistant SK-N-BE(2)-C; test: Metabolic activity assay (CellTiter-Glo), vincristine resistant cells; type: cell-based; settings: vincristine resistant vs non-resistant control SK-N-BE(2)-C; 72 h, APR-246 0 - 30 µM
Protocol: Vincristine resistant and non-resistant SK-N-BE(2)-C (passage 30 to 45, kindly provided by M. Michaelis, University of Kent, and J. Cinatl, Goethe University, Frankfurt am Main) were cultured using IMDM with L-Glutamine, 2mM HEPES (Gibco) supplemented with 10% FCS; for the resistant cells, 20 ng/ml vincristine was added to the medium. The cells were made to be resistant to vincristine-treatment through long-term cultivation in a vincristine containing medium.
If not otherwise declared, cells were precultured for 72 h at a density of 2,000,000 cells per T75 flask (exceptions: Kelly, NB1 and IMR-32 4,000,000 per T75 flask, SJ-GBM2 1,000,000 per T75 flask). Cells were detached with trypsin-EDTA (ThermoFisher Scientific) and seeded in 96-well plates (Greiner, Microplate, 96-Well, PS, F-bottom µCLEAR®, CELLSTAR®) in 100 µl medium per well at a density of 5,000 (KNS-42, SJ-GBM2, SF188, SK-N-BE(2)-C) or 10,000 (IMR-32, NB1, Kelly) cells/well. HDAC-inhibitor screenings were performed accordingly in 384-well plates (Greiner, Microplate, 384-Well, PS, F-bottom µCLEAR®, CELLSTAR®) in 20 µl medium per well at a density of 1,250 (SK-N-BE(2)-C, SK-N-AS) or 2,500 (IMR-32) cells/well. […] Cell viability was quantified using CellTiter-Glo® 2.0 kit (Promega, Madison, USA). […] Bioluminescence was quantified on an OPTIMA plate reader (BMG Labtech, Ortenberg, Germany).

[2] = test system: p53 target gene expression (CDKN1A and GADD45A); test: Real-time PCR of p53 pathway activation in SF188; type: cell-based; settings: APR-246 treatment
Protocol: (§1) Real-time PCR was performed as described previously (Fischer et al., J Mol Diagn 2005, 7, 89-96; Witt et al., Blood 2003, 101, 2001-2007). The following primers were purchased from ThermoFisher Scientific: CDKN1A (p21^WAF1/^CIP1, forward: 5'-TGGAGACTCTCAGGGTCGAAA-3'(SEQ ID NO:1), reverse: 5'-GGCGTTTGGAGTGGTAGAAATC-3'(SEQ ID NO.2)), HPRT (forward: 5'-TGACACTGGCAAAACAATGCA-3'(SEQ ID NO:3), reverse: 5'-GGTCCTTTTCACCAGCAAGCT-3'(SEQ ID NO:4)), SDHA (forward: 5'-TGGGAACAAGAGGGCATCTG-3'(SEQ ID NO:5), reverse: 5'-CCACCACTGCATCAAATTCATG-3'(SEQ ID NO:6)), and PUMA (forward: 5'-CCTGGAGGGTCCTGTACAATCT-3'(SEQ ID NO:7), reverse: 5'-GCACCTAATTGGGCTCCATCT-3'(SEQ ID NO:8)). The primer for GADD45A was purchased from Qiagen, Hilden, Germany (QT00014084). The delta-delta-Ct method was used to calculate the relative expression, and normalization was performed to neuroblastoma specific housekeeping genes SDHA and HPRT (Fischer et al., J Mol Diagn 2005, 7, 89-96).

[3] = test system: p53 target genes CDKN1A, PUMA and GADD45A; test: Real-time PCR of p53 pathway activation in IMR-32; type: cell-based; settings: IMR-32 (TP53-wt), 24 h
Protocol: as §1

[4] = test system: IMR-32 cells; test: Flow cytometry: ROS (DCFDA) and lipid peroxidation (BODIPY); type: cell-based; settings: IMR-32, 50 µM APR-246 for 5 h vs solvent control (DMSO), FACS
Protocol: Flow Cytometry was applied to analyze the lipid peroxidation (BODIPY staining) and to detect ROS (DCFDA staining). BODIPY 581/591 C11 Lipid peroxidation sensor staining (stock concentration: 20 mM in dimethylformamide, Invitrogen, Thermo Fisher Scientific) was used at a working concentration of 20 µM, and was diluted with RPMI without phenol red (Gibco). After inspection, the cells were detached, centrifuged and stained for 20 minutes at 37°C in a 500 µl staining solution. After centrifugation, cells were resuspended in 300 µl RPMI without phenol red, supplemented with 10% FCS. Fluorescence was measured in a FACSCanto II (BD) with 488 nm excitation and detected using a 502 nm longpass and 530/30 nm bandpass filter. Data were analyzed using FlowJo 10.x.
ROS detection was performed as previously described (Oehme et al., Proc Natl Acad Sci U S A 2013, 110, E2592-2601).

[5] = Clinical plasma pharmacokinetics (background); type: in vivo; settings: estimated from Cmax and half-life
[6] = test system: Zebrafish embryo; test: Zebrafish embryo drug toxicity assay; type: in vivo; settings: embryos 48 hpf, 34°C, imaged at 72 hpf and 120 hpf; APR-246 range 10-200 µM, Vorinostat range 2.5-100 µM
Protocol: The toxicity of the compounds was assessed before performing in vivo experiments and a Maximum Tolerated Dose (MTD) was determined. Embryos (48 hpf) were transferred to 48-well uncoated plates (Corning) containing different concentrations of the compounds and a solvent control. The stock solution of the compounds was further dissolved in E3 buffer supplemented with 0.2mM 1-phenyl-2- thiourea (PTU, Sigma) in order to reach the desired concentrations. Three embryos were tested per concentration or solvent control. Embryos were kept at 34°C during the experiment and were imaged at 72 hpf and 120 hpf using a stereo microscope (Leica). The embryos were assessed for signs of toxicity, like death, morphology changes (curvature of body, edema) and behavioral changes. APR-246 concentration range tested: 10-200 µM, MTD: 50µM; solvent control: DMSO (0.2% and 0.5%); Vorinostat concentration range tested: 2.5-100 µM, no toxicity detected (MTD: 100µM); solvent control: DMSO (0.1%).

[7] = clinical; cited from earlier work
[8] = test system: p53 target gene expression (CDKN1A and GADD45A); test: Real-time PCR of p53 pathway activation in SJ-GBM2; type: cell-based; settings: APR-246 treatment
Protocol: as §1

[9] = test system: p53 target gene expression; test: Real-time PCR of p53 pathway activation in SK-N-BE(2)-C; type: cell-based; settings: SK-N-BE(2)-C (C135F), 24 h
Protocol: as §1

[10] = test system: SK-N-BE(2)-C; test: Metabolic activity assay (CellTiter-Glo); type: cell-based; settings: for IC50: SK-N-BE(2)-C
Protocol: (§2) If not otherwise declared, cells were precultured for 72 h at a density of 2,000,000 cells per T75 flask (exceptions: Kelly, NB1 and IMR-32 4,000,000 per T75 flask, SJ-GBM2 1,000,000 per T75 flask). Cells were detached with trypsin-EDTA (ThermoFisher Scientific) and seeded in 96-well plates (Greiner, Microplate, 96-Well, PS, F-bottom µCLEAR®, CELLSTAR®) in 100 µl medium per well at a density of 5,000 (KNS-42, SJ-GBM2, SF188, SK-N-BE(2)-C) or 10,000 (IMR-32, NB1, Kelly) cells/well. HDAC-inhibitor screenings were performed accordingly in 384-well plates (Greiner, Microplate, 384-Well, PS, F-bottom µCLEAR®, CELLSTAR®) in 20 µl medium per well at a density of 1,250 (SK-N-BE(2)-C, SK-N-AS) or 2,500 (IMR-32) cells/well. To avoid edge effects, margin wells (row A and H, column 1 and 12) contained PBS or medium and medium-containing wells were used as background controls. After 24 h incubation, cells were treated for 72 h. Drugs were applied using a Tecan D300e drug printer. Cell viability was quantified using CellTiter-Glo® 2.0 kit (Promega, Madison, USA). 50 µl CellTiter-Glo® (96-well) or 25 µl CellTiter-Glo® (384-well) were added to every well, the plates were shaken at 400 rpm for 5 min and were then incubated for another 10 min. Bioluminescence was quantified on an OPTIMA plate reader (BMG Labtech, Ortenberg, Germany).
(§3) All cell culture experiments were performed in triplicate. A two-tailed t-test, unpaired or paired, or ANOVA where appropriate, were performed using software program R (R version 3.2.2, 2015; The R Foundation for Statistical Computing). The packages tidyverse, janitor, readxl, writxl, ROCR, ggplot2 and ggsignif were used to calculate and plot the data. P-values of less than 0.05 were considered significant (^∗p < 0.05, ^∗∗p < 0.01, ^∗∗∗p < 0.001). IC50 values were calculated using GraphPad Prism Version 9.1.0 (GraphPad Software). Synergistic interactions were analyzed with SynergyFinder using the HSA (highest single agent) reference model, as the assumptions of other models were not fulfilled.

[11] = test system: IMR-32; test: Metabolic activity assay (CellTiter-Glo); type: cell-based; settings: for IC50: IMR-32
Protocol: as §2, §3

[12] = test system: SK-N-AS; test: Metabolic activity assay (CellTiter-Glo); type: cell-based
Protocol: as §2, with “HDAC-inhibitor screenings were performed accordingly in 384-well plates (Greiner, Microplate, 384-Well, PS, F-bottom µCLEAR®, CELLSTAR®) in 20 µl medium per well at a density of 1,250 (SK-N-BE(2)-C, SK-N-AS) or 2,500 (IMR-32) cells/well.” left out
as §3, with “A two-tailed t-test, unpaired or paired, or ANOVA where appropriate, were performed using software program R (R version 3.2.2, 2015; The R Foundation for Statistical Computing).” left out

[13] = test system: SF188; test: Metabolic activity assay (CellTiter-Glo); type: cell-based; settings: doxorubicin combined with APR-246
Protocol: as §2, §3

[14] = test system: SJ-GBM2; test: Metabolic activity assay (CellTiter-Glo); type: cell-based; settings: doxorubicin combined with APR-246
Protocol: as §2, §3

[15] = HDAC inhibitor alone, 72 h, 384-well
[16] = Homo sapiens, HDAC inhibitor alone, 72 h, 384-well

IC50 [10, 15] [nM]	IC50 ([12]; HDAC inhibitor + APR-246 20 µM) [nM]	IC50 [12, 16] [nM]	Structure (SMILES)	Maximum Tolerated Dose (MTD) [6] [µM]	IC50 ([10]; HDAC inhibitor + APR-246 10 µM) [nM]	IC50 [11, 16] [nM]	IC50 ([11]; HDAC inhibitor + APR-246 2 µM) [nM]	other results
			COCC1(CO)C(=O)C2CCN1CC2 (stereo not drawn) [APR-246, 2-(Hydroxymethyl)-2-(methoxymethyl)-1-azabicyclo[2.2.2]octan-3-one]	50				APR-246 sensitivity (metabolic activity) [1]: increased APR-246 sensitivity; p53 target gene expression (CDKN1A and GADD45A) [2]: no reactivation; p53 target gene expression ([3]; APR-246 added to doxorubicin vs doxorubicin only): did not increase target gene expression; ROS formation and lipid peroxidation [4]: increased ROS formation and lipid peroxidation; estimated trough plasma concentration [5]: 15 to 20 µM; half-life [7]: four to five; maximum plasma concentration [7]: approximately 280 µM; p53 target gene expression (CDKN1A and GADD45A) [8]: no reactivation; p53 target gene induction ([9]; APR-246 added to doxorubicin): did not improve p53 target gene induction
172	15.4	46.3	CN(C)Cc1c(C(=O)NCCOc2ccc(C(=O)NO)cc2)oc2ccccc12 [abexinostat, 3-[(Dimethylamino)methyl]-N-{2-[4-(hydroxycarbamoyl)phenoxy]ethyl}-1-benzofuran-2-carboxamide]		37.5	100	30.4	
			COc1cccc2c1C(=O)c1c(O)c3c(c(O)c1C2=O)C[C@@](O)(C(=O)CO)C[C@@H]3O[C@H]1C[C@H](N)[C@H](O)[C@H](C)O1 [doxorubicin]					cell viability [13]: decreased cell viability; doxorubicin sensitivity (metabolic activity) ([10]; doxorubicin resistant TP53-mutant SK-B-BE(2)-C, fixed APR-246 concentration with different doses of doxorubicin): increased doxorubicin sensitivity; doxorubicin sensitivity (metabolic activity) ([11]; IMR-32 (TP53-wt), fixed APR-246 concentration with different doses of doxorubicin): increased doxorubicin sensitivity; cell viability [14]: decreased cell viability; p53 target genes CDKN1A, PUMA and GADD45A expression ([3]; doxorubicin single-treatment): upregulation; p53 target gene expression ([9]; doxorubicin single treatment): failed to activate p53 target gene expression
40.2	1	2.2	Cc1[nH]c2ccccc2c1CCNCc1ccc(/C=C/C(=O)NO)cc1 [panobinostat, (2E)-N-hydroxy-3-[4-({[2-(2-methyl-1H-indol-3-yl)ethyl]amino}methyl)phenyl]acrylamide]			35.6	13.9	IC50 ([10]; HDAC inhibitor + APR-246 20 µM): 3.1 nM
			O=C(CCCCCCC(=O)Nc1ccccc1)NO [vorinostat, N-Hydroxy-N'-phenyloctanediamide]	100				HSA synergy score ([12]; 72 h co-treatment of vorinostat (0-10 µM) with APR-246 (0, 15, 30, 45 µM), SynergyFinder HSA model): 12.17

Structure (SMILES)	IC50 [10, 15] [nM]	IC50 ([12]; HDAC inhibitor + APR-246 20 µM) [nM]	IC50 [12, 16] [nM]	Maximum Tolerated Dose (MTD) [6] [µM]	IC50 ([10]; HDAC inhibitor + APR-246 10 µM) [nM]	IC50 [11, 16] [nM]	IC50 ([11]; HDAC inhibitor + APR-246 2 µM) [nM]	other results
C/C=C1\NC(=O)[C@H]2CSSCC/C=C/[C@H](CC(=O)N[C@H](C(C)C)C(=O)N2)OC(=O)[C@H](C(C)C)NC1=O [romidepsin]	26.9	1.8	5.7		9.9	0.73		IC50 ([11]; HDAC inhibitor + APR-246 1 µM): 0.24 nM
